Where two headings read alike, the source gives them in different places.
Assays:
[1] = test system: SW480 pERK; assay: Phospho-ERK inhibition, AlphaLISA SureFire Ultra p-ERK 1/2; type: cell-based, human; settings: for IC50: read-out: SW480 PERK IC50; for SW480 (Ymin %): lowest value of the pERK IC50 curve
Experimental: (§1) All cancer cell lines (A375, A101D, A2058, RKO, HT29 SK-MEL 30, IPC298, HepG2, HCT-116, Lovo, SW620, SW480, NCI-H358, NCI-H2122, Calu-6, NCIH2087, NCIH1755, NCIH1666 and Mewo) were obtained from ATCC and cultured in RPMI-1640 medium (Gibco) supplemented with 5% heat inactivated fetal bovine serum (FBS, Wisent) at 37° C. under 5% CO2. Cells were maintained in T175 flasks (Greiner). They were passaged by removing the culture medium, washing once in 10 mL of room temperature Phosphate Buffered Saline (PBS; Wisent) and incubating at 37° C. with 2 mL of 0.05% Trypsin (Thermo-Fisher). Trypsin was then inactivated by adding complete growth medium and the cells were then replated in a T175 culture dish at the appropriate dilution. All cell lines were routinely tested for mycoplasma contamination. Tissue type and mutational status of each cell line can be found in Table B.
(§2) AlphaLISA® SureFire® Ultra™ p-ERK ½ (Thr202/Tyr204) analysis was conducted on cells plated in 100 μL of complete RPMI-1640 growth medium in 96-well flat-bottomed transparent dishes (Costar) at a density indicated in Table C. Cells were maintained overnight at 37° C. under 5% CO2 before treatment with compounds' dilution series for one hour. The cell density in cells/cm^2 corresponds to cell number divided by the area of one well of a 96-well plate ([…]).
(§3) In a dilution series 100 μL/well of test substance dilution prepared in complete RPMI-1640 growth media was added to the cells. The dilution series is selected so that ten concentrations cover a range from 30 μM or 10 μM to 0.33 nM. If necessary, the initial concentration of 10 μM is increased to 100 μM or lowered to 1 μM (as in the case of A375 and NCIH1666 cells, which are generally more sensitive to the compounds) and further dilution is carried out accordingly. The final concentration of DMSO in the assay is set at 0.5%.
(§4) After treatment, media was removed, and cells were lysed in 50 μL of 1× AlphaScreen Ultra Lysis Buffer (Perkin Elmer). The AlphaLISA® SureFire® Ultra™ p-ERK ½ (Thr202/Tyr2O4) (PerkinElmer) reactions were performed with 5 μL of cell lysate according to the manufacturer's specifications in 384-well proxyplates (Perkin Elmer) followed by overnight incubation of the reactions at room temperature in a humidified chamber. After completion of the reactions, the signals were recorded on an EnVision plate reader (Perkin Elmer) using built in AlphaLISA® settings.
(§5) The effect of each compound dilution on the pERK signal was expressed in % inhibition and calculated as follows. An internal 100% inhibition control (1 μM trametinib, cat. No. HY-10999; MedChem Express; CAS No. 871700-17-3) was included in each plate and used as a measure of pERK background. First, the value obtained for trametinib was subtracted from each data point. The average of DMSO (vehicle) controls (set as 0% inhibition) was established and used to calculate % inhibition:
(§6) The ability of each compound to inhibit pERK signal was expressed as an IC50 value obtained by plotting the inhibition values for each data point of a dilution series and fitting the obtained curves using a log(agonist) versus response−variable slope (four parameters) function using GraphPadPrism (V7.0).
(§7) When present, paradoxical pERK induction is inferred from the negative % inhibition values observed in the pERK IC50 curves of a compound.

[2] = test system: HCT116 pERK; assay: as above; type: cell-based, human; settings: for HCT116 (Ymin %): lowest value of the pERK IC50 curve
Experimental: as §1, §2, §3, §4, §5, §6, §7

[3] = biological target: T1, BRAF (Homo sapiens, UniProt P15056); assay: BRAF kinase activity assay (ADP-Glo); type: biochemical
T1 construct: GST; purchased Millipore Sigma B4062-10UG
T1 sequence (P15056 whole entry): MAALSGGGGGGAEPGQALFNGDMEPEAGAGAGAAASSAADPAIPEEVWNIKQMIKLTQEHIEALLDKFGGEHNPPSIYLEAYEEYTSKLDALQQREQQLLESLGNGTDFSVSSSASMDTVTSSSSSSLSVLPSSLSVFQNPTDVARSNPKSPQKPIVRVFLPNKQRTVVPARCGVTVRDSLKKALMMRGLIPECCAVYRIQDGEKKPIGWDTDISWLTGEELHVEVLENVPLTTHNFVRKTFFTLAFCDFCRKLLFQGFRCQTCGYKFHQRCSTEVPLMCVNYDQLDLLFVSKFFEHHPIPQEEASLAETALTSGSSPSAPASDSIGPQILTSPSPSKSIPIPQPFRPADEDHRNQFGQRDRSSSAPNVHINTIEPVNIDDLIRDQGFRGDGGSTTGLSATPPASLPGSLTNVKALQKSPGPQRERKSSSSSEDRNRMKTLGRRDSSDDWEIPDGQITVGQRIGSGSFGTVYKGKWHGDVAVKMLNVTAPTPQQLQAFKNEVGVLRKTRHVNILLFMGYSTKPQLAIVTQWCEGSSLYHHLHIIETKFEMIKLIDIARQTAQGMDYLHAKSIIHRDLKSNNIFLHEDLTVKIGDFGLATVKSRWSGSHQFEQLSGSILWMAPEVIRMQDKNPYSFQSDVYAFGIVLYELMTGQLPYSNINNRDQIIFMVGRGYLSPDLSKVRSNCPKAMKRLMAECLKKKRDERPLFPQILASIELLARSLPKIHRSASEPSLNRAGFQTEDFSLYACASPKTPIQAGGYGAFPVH
Experimental: (§8) Compound preparation: solid samples of each substances in 1dram vials were suspended in DMSO (Fisher Scientific) at a stock concentration of 20 mM. Stocks were kept at −20° C. and protected from light. If solubility of the compound at 20 mM appeared to be an issue, the initial concentration of the DMSO stock was changed to 10 mM or 5 mM.
(§9) In vitro enzymatic reactions were used for evaluating compounds intrinsic activity against BRAF, CRAF and ARAF. For BRAF and CRAF, 0.375 nM of purified GST-tagged kinases (cat #B4062-10UG and cat #R1656-10UG respectively from Millipore Sigma) were incubated with 75 nM of kinase-dead MEK1 substrate (cat #40075; BPS Bioscience) in the presence of 10 μM of Ultrapure ATP (cat #V9102; Promega; part V915A) with and without the test compound in a buffer containing 50 mM HEPES pH 7.5, 10 mM MgCl2, 1 mM EDTA, 0.01% Brij-35 and 2 mM DTT. Separate reactions were performed with the MEK1 substrate and ATP as a blank control. ARAF, kinase reactions were rigorously the same with the exception that kinase concentration was raised to 3.75 nM (cat #1768-0000-1; Reaction Biology).
(§10) For compound treatment, 5 μL/well of test substance solution are placed in a 384-well proxyplate (Perkin Elmer) and mixed with 2× concentrated kinase reactions. The dilution series is selected so that nine concentrations cover a range from 100 nM to 0.01 nM. […] The final concentration of DMSO in the assay is set at 0.05%.
(§11) BRAF and CRAF kinase reactions were carried out for a total of 2 hours at 30° C. and then stopped by ½ dilution in ADP-Glo Reagent (cat #V9102; Promega; part V912C). Reactions were then incubated for 1 h at room temperature before addition of one volume of Kinase Detection Reagent (cat #V9102; Promega; part V917A). Plates were then equilibrated at room temperature for 30 minutes before detection of luminescence on a Synergy Neo2 plate reader (Biotek). The effect of each compound dilution on BRAF and CRAF kinase activity was expressed as % inhibition and calculated as follows. First, the internal 100% inhibition control (average of luminescence in kinase reactions comprising kinase dead MEK1 substrate alone) was subtracted from each data point. The average of DMSO (vehicle) controls (set as 0% inhibition) was established and used to calculate % inhibition:
(§12) IC50 values were obtained by plotting the kinase inhibition values and fitting the dose-activity curves using a log(agonist) versus response−variable slope (four parameters) function using either GraphPadPrism (V7.0) or Dotmatics Screening Ultra platform. Standards included in the ARAF kinase assay were Belvarafenib (MedChem Express cat #HY-109080; CAS #1446113-23-0), LXH254 (MedChem Express cat #HY-112089; CAS #1800398-38-2) and BGB283 (cat #HY-18957; CAS #1446090-79-4).

[4] = biological target: CRAF (Homo sapiens, UniProt P04049); assay: CRAF kinase activity assay (ADP-Glo); type: biochemical
Chain of CRAF (P04049 whole entry): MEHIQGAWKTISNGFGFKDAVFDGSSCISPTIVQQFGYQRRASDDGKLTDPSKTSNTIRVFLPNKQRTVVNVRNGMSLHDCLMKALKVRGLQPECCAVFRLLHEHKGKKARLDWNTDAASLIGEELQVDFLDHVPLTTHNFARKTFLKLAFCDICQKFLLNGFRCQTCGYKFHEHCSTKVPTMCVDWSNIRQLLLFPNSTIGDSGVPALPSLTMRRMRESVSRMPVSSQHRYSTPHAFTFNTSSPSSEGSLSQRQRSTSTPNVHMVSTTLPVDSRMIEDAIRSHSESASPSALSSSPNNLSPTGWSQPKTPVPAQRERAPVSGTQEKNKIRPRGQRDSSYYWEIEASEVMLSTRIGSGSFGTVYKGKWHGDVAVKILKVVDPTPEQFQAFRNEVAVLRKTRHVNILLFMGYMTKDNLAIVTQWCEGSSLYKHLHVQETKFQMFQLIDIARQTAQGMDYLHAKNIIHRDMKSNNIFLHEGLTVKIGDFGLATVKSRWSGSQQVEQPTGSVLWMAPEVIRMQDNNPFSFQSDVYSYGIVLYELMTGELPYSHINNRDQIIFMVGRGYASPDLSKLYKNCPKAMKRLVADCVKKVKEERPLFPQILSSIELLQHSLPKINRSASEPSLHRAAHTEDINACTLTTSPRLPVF
Experimental: as §8, §9, §10, §11, §12

O=S(=O)(Nc1ccc(F)c(Nc2ncnc3cnc(-n4cnc5ccccc54)nc23)c1F)N1CCCC1 [Example 77]
IC50 ([1]; Table 3, 1 h treatment): 1000 to 10000 nM
SW480 (Ymin %) ([1]; Table 3): −4%
IC50 ([2]; Table 3, 1 h treatment): 1000 to 10000 nM
HCT116 (Ymin %) ([2]; Table 3): −4%

O=S(=O)(Nc1ccc(F)c(Nc2ncnc3cnc(-n4cnc5ccccc54)nc23)c1F)N1CCC(OC(F)F)C1 (stereo not shown) [Example 78]
IC50 ([1]; Table 3, 1 h treatment): 500 to 1000 nM
SW480 (Ymin %) ([1]; Table 3): 10%
IC50 ([2]; Table 3, 1 h treatment): 1000 to 10000 nM
HCT116 (Ymin %) ([2]; Table 3): 6%

COc1ccc(S(=O)(=O)Nc2ccc(F)c(Nc3ncnc4cnc(-n5cnc6c(N)cccc65)nc34)c2F)c(F)c1 [Example 79]
IC50 ([1]; Table 3, 1 h treatment): < 500 nM
SW480 (Ymin %) ([1]; Table 3): −2%
IC50 ([2]; Table 3, 1 h treatment): 500 to 1000 nM
HCT116 (Ymin %) ([2]; Table 3): −6%

COc1ccc(S(=O)(=O)Nc2ccc(F)c(Nc3ncnc4c(N)nc(-n5cnc(C)c5C)nc34)c2F)cc1 [Example 85]
IC50 ([1]; Table 4, 1 h treatment): 1000 to 10000 nM
SW480 (Ymin %) ([1]; Table 4): 4%
IC50 ([2]; Table 4, 1 h treatment): 10000 to 30000 nM
HCT116 (Ymin %) ([2]; Table 4): 8%

COc1ccc(S(=O)(=O)Nc2ccc(F)c(Nc3ncnc4c(N)nc(-n5cnc(C)c5C)nc34)c2F)c(C)c1 [Example 86]
IC50 ([1]; Table 4, 1 h treatment): 1000 to 10000 nM
SW480 (Ymin %) ([1]; Table 4): 3%
IC50 ([2]; Table 4, 1 h treatment): 1000 to 10000 nM
HCT116 (Ymin %) ([2]; Table 4): 8%

COc1ccc(S(=O)(=O)Nc2ccc(F)c(Nc3ncnc4cnc(SC)nc34)c2Cl)cc1 [Example 89]
IC50 ([1]; SW480 cells, pERK): 10000 to 30000 nM
SW480 pERK % Ymin (lowest value of the IC50 curve) ([1]; SW480 cells, value in brackets, Ymin above −20% = minimal or no paradoxical induction): 3.5%
IC50 ([2]; HCT116 cells, pERK): 10000 to 30000 nM
HCT116 pERK % Ymin (lowest value of the IC50 curve) ([2]; HCT116 cells, value in brackets, Ymin above −20% = minimal or no paradoxical induction): −5%

CSc1ncc2ncnc(Nc3c(F)ccc(NS(=O)(=O)c4cccc(F)c4C)c3F)c2n1 [Example 90]
IC50 ([2]; Homo sapiens, HCT-116, Table 2, 1 h treatment): 1000 to 10000 nM
IC50 ([3]; Table 2): 1 to 10 nM

COc1ccc(S(=O)(=O)Nc2ccc(F)c(Nc3ncnc4cnc(SC)nc34)c2F)c(C)c1F [Example 91]
IC50 ([4]; Table 2): 10 to 50 nM
IC50 ([2]; Table 2, 1 h treatment): 1000 to 10000 nM
HCT116 (Ymin %) ([2]; Table 2): −8%
IC50 ([3]; Table 2): > 10 nM

COc1ccc(S(=O)(=O)Nc2ccc(F)c(Nc3ncnc4cnc(SC)nc34)c2F)c(C)c1Cl [Example 92]
IC50 ([2]; Table 2, 1 h treatment): 1000 to 10000 nM
HCT116 (Ymin %) ([2]; Table 2): −12%
IC50 ([3]; Table 2): 1 to 10 nM

Cc1c(F)cccc1S(=O)(=O)Nc1ccc(F)c(Nc2ncnc3cnc(-n4nnc5c(N)cccc54)nc23)c1F [Example 93]
IC50 ([4]; Table 3): < 10 nM
IC50 ([2]; Table 3, 1 h treatment): < 500 nM
HCT116 (Ymin %) ([2]; Table 3): 1.3%
IC50 ([3]; Table 3): 1 to 10 nM

Cc1c(F)cccc1S(=O)(=O)Nc1ccc(F)c(Nc2ncnc3cnc(-n4nc(C(=O)N5CCC(O)CC5)c5ccccc54)nc23)c1F [Example 108]
IC50 ([4]; Table 3): 10 to 50 nM
IC50 ([2]; Table 3, 1 h treatment): 1000 to 10000 nM
HCT116 (Ymin %) ([2]; Table 3): −7.0%

Source: patent publication US20240239801A1, “PYRIMIDO[5,4,D]PYRIMIDINE COMPOUNDS, COMPOSITIONS COMPRISING THEM AND USES THEREOF” (Université de Montréal, priority 2021, published 2024)
